Reference: PMC8717366, “Synthesis and Pharmacological Characterization of Visabron, a Backbone Cyclic Peptide Dual Antagonist of α4β1 (VLA-4)/α9β1 Integrin for Therapy of Multiple Sclerosis” (JACS Au, 2021)
Read-outs that look alike come from different tables or passages of the source. Numbered stars: 1 amine (or outer) side, 2 acyl side, 3 side chain; on linkers, the order of the positions; unused ones are H or OH. Bridge positions count the residues as written; N and C are the ends. Square brackets hold non-standard residues; d marks the D form. Peptide text beside a SMILES is read from it. CO = O=C([*:1])[*:2]; Nlys = NCCCCNCC(=O)O

Columns and labels:
[1] = Pharmacokinetics in rats after single i.v. dose; type: in vivo, Male Wistar rats
Procedure: Pharmacokinetics of Visabron c (4-4) following iv injection:
Animals-Male Wistar rats (275−300 g, purchased from Harlan, Israel), were used for the surgical procedure. An indwelling cannula was implanted into the right jugular vein, and exteriotrated at the dorsal neck to enable serial systemic blood sampling. After completion of the surgical procedure, the animals were transferred to cages to recover overnight (12−18 h). The animals had free access to water and food during the recovery period and throughout the entire experiment. All surgical and experimental procedures were approved by the Animal Experimental Ethics Committee of the Hebrew University, Hadassah Medical School, Jerusalem. […]
PK Study-A single dose of Visabron c(4-4) in sterile water (300 μL of a 0.514 mg/mL solution, which was equivalent to a final dose of 0.514 mg/kg) was administered i.v. via the indwelling jugular cannula to each rat. Following dose administration, blood samples were taken at pre -dose, 10, 15, 30, 60, 90 and 130-min from the onset of the drug administration (time zero) via the right jugular vein. Approximately […]
350 μL of whole blood was removed, and placed in sodium-heparin containing tubes, and immediately placed in wet ice. Blood was centrifuged at 5322 g for 10 min and a 150 μL aliquot of plasma was transferred to fresh centrifuge tubes and stored at −20 °C pending analysis. PK analysis was performed using standard non-compartmental analysis models in Phoenix WinNonlin®.
Bioanalytical Method for the Detection of Vis-c(4-4) in Rat Plasma: Plasma samples (150 μL) were spiked with metoprolol (20 μL, 10 μg/mL) as an internal standard. 200 μL of ACN was added to each sample and vortex-mixed for 1 min. The samples were then centrifuged (14635 g, 10 min), and the supernatant was transferred to fresh glass tubes and evaporated to dryness (Vacuum Evaporation System, Labconco, Kansas City, MO, USA). The glass tubes were reconstituted in 80 μL of mobile phase and centrifuged a second time (14635 g, 10 min). The amount of the compounds was determined using an HPLC−MS Waters 2695 Separation Module, equipped with a Micromass ZQ detector. The resulting solution was injected (10 μL) into the HPLC sy stem. The system was conditioned as follows :
Xterra MS C18, 3.5 µm, 100A, 100 x 2.1 mm column (Waters), an isocratic mobile phase of ACN : water supplemented with 0.1% formic acid (15:85, v/v) and a flow rate of 0.2 mL/ min at 35 °C was used. The limit of quantification the peptide was 25 ng/mL. Calibration curve was prepared by spiking the standard working stock solution with 15 μL of the different concentrations, 20 μL IS (10 μg/ mL) and 135 μl blank rat plasma in a centrifuge tube on the analysis day . […]
range of 25 ng/Ml to 2.5 μg/mL.
Blood cell counting and biochemistry analyzes : Male C57BL/6 mice were injected intravenously with 0.2 ml of peptide in a dose of 500 mg/kg. No immediate toxicity symptoms were measured a nd thereafter, acute tolerability was observed. Since the hematopoietic system is one of the most sensitive parameters to assess the toxicity of drugs in humans and animals, tail vein blood samples were taken from control (n=3) and 250 mg/kg Visabron c (4-4) injected mice (n=5), after 24 hours from injection and submitted for hematocrit cell counting and biochemical analysis. […]
blood count and electrolytes of special importance are normal liver (ALP, alkaline phosphatase; ALT, alanine transaminase and AST, aspartate transaminase) functions and normal kidney (creatinine and blood urea nitrogen) functions, indicating sufficient organ integrity at the end of the experimental period. The data obtained was similar to hematological parameters reported for this mice strain5, and clearly indicates lack of differences on kidney and liver parameters between the two mice groups.
Visabron c (4-4) safety by in vitro evaluation using PhosphoSens - CSox based kinase assays:
A powerful method was used to measure the activity of recombinant protein kinases using a […]

[2] = system: experimental autoimmune encephalomyelitis (EAE); test: MOG-induced EAE in C57BL/6 mice; type: in vivo, C57Bl/6 female mice
Procedure: EAE was induced in C57bl/6 mice by immunization with MOG/CFA and injection of pertussis toxin as described in the Experimental Section. The body weight, neurological scores, and disease incidence were monitored daily for 35 days. Immunized mice (n = 10–14 in each group) were treated (i.p. injection) at time points indicated by arrows. Histology was performed on day 35 on all groups. Data shown are the mean ± SEM, evaluated by the nonparametric Kruskal–Wallis test followed by a Dunn’s postanalysis. All p-values <0.05 were considered statistically significant. (A) Neurological clinical score. Visabron c (4–4) (green) at a cumulative dose of 25 mg/kg (5 mg/kg every other day, for 8 days) and natalizumab (orange) at a cumulative dose of 120 mg/kg (24 mg/kg every other day, for 8 days). […] (E) Dose–response of treatment with visabron c (4–4). Inset: Mean neurological score of the different treatment groups at disease onset (days 15–17). […] (F) Inflammatory infiltrates (blue) in the spinal cord were evaluated by cell counting in H&E stained slices.
C57Bl/6 female mice, 8 weeks old, obtained from the Harlan animal breeding center were used in the study and were maintained in the SPF unit of the Faculty of Medicine. EAE was induced by s.c. injection of 0.2 mL/mouse emulsion containing 200 μg of MOG35–55 peptide in saline and an equal volume of 5 mg/mL Complete Freund’s Adjuvant (CFA) containing 1 mg/mL heat-killed M. tuberculosis (H37Ra; Difco Laboratories, Detroit, MI) . The emulsification was made from equal parts of oil and liquid portions (1:1) in two syringes connected to each other with Leur lock, transferred to an insulin syringe, and 0.2 mL was injected to the right flank of each mouse. On the day of immunization, pertussis toxin (200 ng/mL) was injected i.p. at a volume dose of 0.2 mL/mouse. The injection of the pertussis toxin (i.p) was repeated after 48 h to boost the immune recognition reaction. From day four, natalizumab and Visabron c (4–4) were injected i.p. each other day, five times, and the weight, the neurological score and the disease incidence of the mice were monitored until 35 days after immunization. EAE scoring system: mice were observed daily for the appearance of neurological symptoms, which were scored as follows: 0, asymptomatic; 1, partial loss of tail tonicity; 1.5, limp tail; 2, hind limb weakness (right reflex); 3, ataxia; 4, early paralysis; 5, full paralysis; and 6, moribund or dead. The disease incidence was calculated as a percentage of the ratio of the number of new diseased mice per number of living mice at each time-point. In experiments to estimate cell infiltration in the spinal cord at 35 days postimmunization, the mice were euthanized by cervical dislocation and lumbar spinal cords were collected.

[3] = human, in vivo; cited from earlier work

Molecule	half-life ([1]; rat, in vivo, iv, 0.515 mg/kg, single i.v. dose 0.515 mg/kg, n = 4) [min]	AUC ([1]; rat, in vivo, iv, plasma, single i.v. dose 0.515 mg/kg, n = 4) [ng·h/mL]	Vd ([1]; rat, in vivo, iv, read-out: volume of distribution) [L/kg]	Vd ([1]; rat, in vivo, iv, single i.v. dose 0.515 mg/kg, n = 4, Table 3, read-out: Vd) [L/kg]	clearance ([1]; rat, in vivo, iv, single i.v. dose 0.515 mg/kg, n = 4, noncompartmental analysis) [mL/min/kg]	t1/2 ([1]; single i.v. dose 0.515 mg/kg, n = 4, 0.515 mg/kg) [min]	EAE-associated body weight decrease ([2]; 13–16 to 35 days postimmunization, visabron c (4–4) cumulative 25 mg/kg, natalizumab 120 mg/kg i.p., Figure 3B)	Disease incidence vs EAE disease group ([2]; Figure 3C)	Cumulative neurological scores vs EAE/PBS group ([2]; at 35 days postimmunization, Figure 3D)	Inflammatory cell infiltration in spinal cord (H&E cell counting) ([2]; day 35, Figure 3F)	Increase in neurological score vs EAE group ([2]; onset (13–16 days) to 35 days postimmunization, i.p., visabron c (4–4) cumulative 25 mg/kg, natalizumab cumulative 120 mg/kg, Figure 3A)	Multiple sclerosis patients with anti-natalizumab-neutralizing antibodies [3]	Patients with neutralizing antibodies toward natalizumab that cause loss of drug efficacy [3]
CSCC[C@@H]1NC(=O)[C@H]([C@@H](C)O)NC(=O)CN(C(=O)[C@@H](N)CCCCN)CCCCNC(=O)NCCCCN(CC(=O)N[C@@H](CC(C)C)C(N)=O)C(=O)[C@H](CC(=O)O)NC(=O)[C@H](CC(C)C)NC1=O [visabron c (4–4)] (H-K[Nlys]TMLD[Nlys]L-NH2; linker 2-7 via CO)	24	777	0.39	0.381 ± 0.029	11.1 ± 0.5	23.8 ± 1.6							
natalizumab: clinical-grade monoclonal antibody anti-α4β1 produced by Biogen Co. [reference compound]							significantly decreased	lower disease incidence	significantly decreased	significantly reduced	significantly lower	6–9%	about 6%
